According to ChEMBL document CHEMBL1201862, “PubChem BioAssay data set” (2004):
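Briefly, cells in 96-well plates were exposed to five compound concentrations for 48 h, and endpoints were estimated by linear interpolation. Here, GI50 denotes the concentration required for 50% inhibition of growth.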 The source made the active and inactive calls. No stated cut-off is given here; in the data, active = GI50 up to about 1.1 µM and inactive = higher.

What was measured:
Assay in all cases: inhibition of tumour cell growth, NCI panel, 48 h
NCI/ADR-RES = tested on: NCI/ADR-RES
OVCAR-5 = tested on: OVCAR-5
UO-31 = tested on: UO-31
SK-MEL-5 = tested on: SK-MEL-5
NCI-H522 = tested on: NCI-H522
OVCAR-8 = tested on: OVCAR-8
SR = tested on: SR
SN12C = tested on: SN12C
RXF 393 = tested on: RXF 393
SF-295 = tested on: SF-295
MDA-MB-231 = tested on: MDA-MB-231
MOLT-4 = tested on: MOLT-4
NCI-H460 = tested on: NCI-H460
M14 = tested on: M14
HT-29 = tested on: HT-29
T47D = tested on: T47D
U-251 = tested on: U-251
EKVX = tested on: EKVX
A549 = tested on: A549
OVCAR-3 = tested on: OVCAR-3

Compound	GI50 (NCI/ADR-RES)	GI50 (OVCAR-5)	GI50 (UO-31)	GI50 (SK-MEL-5)	GI50 (NCI-H522)	GI50 (OVCAR-8)	GI50 (SR)	GI50 (SN12C)	GI50 (RXF 393)	GI50 (SF-295)	GI50 (MDA-MB-231)	GI50 (MOLT-4)	GI50 (NCI-H460)	GI50 (M14)	GI50 (HT-29)	GI50 (T47D)	GI50 (U-251)	GI50 (EKVX)	GI50 (A549)	GI50 (OVCAR-3)
O=C(O)CC(CC(=O)O)C(=O)O [TRICARBALLYLIC ACID]	> 100 µM (inactive)	> 100 µM (inactive)	> 100 µM (inactive)	> 100 µM (inactive)	> 100 µM (inactive)	> 100 µM (inactive)	> 100 µM (inactive)	> 100 µM (inactive)	> 100 µM (inactive)	> 100 µM (inactive)	> 100 µM (inactive)	> 100 µM (inactive)	> 100 µM (inactive)	> 100 µM (inactive)	> 100 µM (inactive)	> 100 µM (inactive)	> 100 µM (inactive)	> 100 µM (inactive)	> 100 µM (inactive)	> 100 µM (inactive)
O=C1C(Cl)=C(N2CCC[C@H]2CO)C(=O)c2c(O)ccc(O)c21	2 µM (inactive)	> 10 µM (inactive)	2.24 µM (inactive)	1.73 µM (inactive)	0.104 µM (active)	2.88 µM (inactive)	0.592 µM (active)	1.71 µM (inactive)	1.99 µM (inactive)	> 10 µM (inactive)	2.64 µM (inactive)	0.337 µM (active)	8.63 µM (inactive)	1.95 µM (inactive)	4.18 µM (inactive)	2.11 µM (inactive)	> 10 µM (inactive)	9.16 µM (inactive)	8.2 µM (inactive)	2.56 µM (inactive)
O=C(N[C@H]1CCC[C@H]1C(=O)Nc1ccc(C(F)(F)F)cc1)OCc1ccccc1	> 100 µM (inactive)	> 100 µM (inactive)	> 100 µM (inactive)	> 100 µM (inactive)	54.2 µM (inactive)	> 100 µM (inactive)	> 100 µM (inactive)	> 100 µM (inactive)	> 100 µM (inactive)	> 100 µM (inactive)	> 100 µM (inactive)	> 100 µM (inactive)	> 100 µM (inactive)	> 100 µM (inactive)	> 100 µM (inactive)	> 100 µM (inactive)	> 100 µM (inactive)	> 100 µM (inactive)	> 100 µM (inactive)	> 100 µM (inactive)
Oc1ccccc1-c1nn2c(CCCCCCCCc3nnc4sc(-c5ccccc5O)nn34)nnc2s1	12 µM (inactive)	6.27 µM (inactive)	4.11 µM (inactive)	18.3 µM (inactive)	13.9 µM (inactive)	18.7 µM (inactive)	3.93 µM (inactive)	19.5 µM (inactive)	10.2 µM (inactive)	9.98 µM (inactive)	17.3 µM (inactive)	8.39 µM (inactive)	8.05 µM (inactive)	11.2 µM (inactive)	11.1 µM (inactive)	4.9 µM (inactive)	12.9 µM (inactive)	22.4 µM (inactive)	6 µM (inactive)	14.4 µM (inactive)
C/C(=C/c1ccccc1)CN(C(=O)/C=C\Sc1ccccc1)C(C)(C)C	> 34.6 µM (inactive)	> 100 µM (inactive)	> 52 µM (inactive)	60.8 µM (inactive)	10.1 µM (inactive)	> 83.8 µM (inactive)	19.6 µM (inactive)	> 100 µM (inactive)	> 100 µM (inactive)	> 100 µM (inactive)	> 100 µM (inactive)	3.87 µM (inactive)	> 100 µM (inactive)	> 100 µM (inactive)	36.4 µM (inactive)	> 31.2 µM (inactive)	> 84.9 µM (inactive)	> 70 µM (inactive)	60.1 µM (inactive)	> 75.3 µM (inactive)
Cc1ccc2c(O)cc(-c3cc(C)sc3C)nc2n1	1.62 µM (inactive)	11.6 µM (inactive)	4.29 µM (inactive)	0.708 µM (active)	2.07 µM (inactive)	3.91 µM (inactive)	0.55 µM (active)	6.44 µM (inactive)	2.81 µM (inactive)	1.94 µM (inactive)	10.4 µM (inactive)	4.14 µM (inactive)	4.21 µM (inactive)	3.2 µM (inactive)	4.82 µM (inactive)	2.67 µM (inactive)	3.69 µM (inactive)	10.8 µM (inactive)	3.94 µM (inactive)	3.5 µM (inactive)
[N-]=[N+]=Nc1c(C=O)c(=O)n2c3c(cccc13)CCC2	7.76 µM (inactive)	7.24 µM (inactive)	2.49 µM (inactive)	13.8 µM (inactive)	2.13 µM (inactive)	3.03 µM (inactive)	1.1 µM (active)	15.4 µM (inactive)	1.76 µM (inactive)	25.9 µM (inactive)	11.3 µM (inactive)	1.24 µM (inactive)	21.2 µM (inactive)	1.95 µM (inactive)	10 µM (inactive)	4.86 µM (inactive)	13.6 µM (inactive)	11.1 µM (inactive)	20.8 µM (inactive)	2.28 µM (inactive)
COC(=O)C1CC2(C)C=CC1N(C(=O)OCc1ccccc1)C2 (stereo not given)	41.3 µM (inactive)	> 100 µM (inactive)	69.5 µM (inactive)	34.8 µM (inactive)	30.6 µM (inactive)	> 100 µM (inactive)	37.6 µM (inactive)	> 100 µM (inactive)	41.9 µM (inactive)	42.4 µM (inactive)	> 100 µM (inactive)	31.6 µM (inactive)	> 100 µM (inactive)	63.8 µM (inactive)	46.2 µM (inactive)	40 µM (inactive)	58.1 µM (inactive)	38.2 µM (inactive)	88.5 µM (inactive)	55.8 µM (inactive)
COc1ccc([C@@]23Oc4cc(OC)cc(OC)c4[C@]2(O)[C@H](O)[C@H](C(=O)N(C)C)[C@H]3c2ccccc2)cc1 [ROCAGLAMIDE]	0.0306 µM (active)	0.00991 µM (active)	0.0158 µM (active)	0.00301 µM (active)	0.0104 µM (active)	0.0109 µM (active)	0.00162 µM (active)	0.00815 µM (active)	0.0206 µM (active)	0.0045 µM (active)	0.00776 µM (active)	0.00192 µM (active)	0.0027 µM (active)	0.00327 µM (active)	0.00224 µM (active)	0.00219 µM (active)	0.00605 µM (active)	0.0203 µM (active)	0.00353 µM (active)	0.056 µM (active)
COc1cccc2c1C(=O)c1c(O)c3c(c(O)c1C2=O)C[C@@](O)(/C(C)=N/NC(=O)c1ccc(Cl)c(Cl)c1)C[C@@H]3OC1CC(N)C(O)C(C)O1 (stereo not given in full)	0.532 µM (active)	0.374 µM (active)	1.08 µM (active)	0.116 µM (active)	0.223 µM (active)	0.292 µM (active)	< 0.01 µM (active)	0.101 µM (active)	1.15 µM (inactive)	0.078 µM (active)	0.711 µM (active)	< 0.01 µM (active)	0.067 µM (active)	0.148 µM (active)	0.071 µM (active)	0.372 µM (active)	0.0589 µM (active)	0.904 µM (active)	0.186 µM (active)	0.226 µM (active)
